Source: patent US12122761B2, “2-azaspiro[3.4]octane derivatives as M4 agonists” (NOVARTIS AG, priority 2019, dated 2024)

Biological target: T1, human cloned CHRM3 receptor (M3_CHO cells) (Homo sapiens, UniProt P20309)
T1 construct: expressed in transfected cells; host or cells: CHO-K1
Experiment: CHRM3 Ca++ Flux Assay (agonist mode, FDSS 7000EX)
Assay type: cell-based
Conditions: for Emax: Percent Activity measured to EC100 of Carbachol, read-out: M3 FDSS PA; for EC50: agonist mode, geometric mean if tested more than once, read-out: M3 FDSS EC50
Summary of the method: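 Agonist-mode calcium flux: 11-point dose responses, triplicate wells, fluorescence followed for 3 minutes. Cells are M3_CHO or M5_CHO lines (human receptors) with Ca++ indicator in probenecid-containing HEPES/HBSS buffer. Percent activity is referenced to carbachol EC100, and curves come from four-parameter nonlinear regression.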

T1 sequence (P20309 whole entry): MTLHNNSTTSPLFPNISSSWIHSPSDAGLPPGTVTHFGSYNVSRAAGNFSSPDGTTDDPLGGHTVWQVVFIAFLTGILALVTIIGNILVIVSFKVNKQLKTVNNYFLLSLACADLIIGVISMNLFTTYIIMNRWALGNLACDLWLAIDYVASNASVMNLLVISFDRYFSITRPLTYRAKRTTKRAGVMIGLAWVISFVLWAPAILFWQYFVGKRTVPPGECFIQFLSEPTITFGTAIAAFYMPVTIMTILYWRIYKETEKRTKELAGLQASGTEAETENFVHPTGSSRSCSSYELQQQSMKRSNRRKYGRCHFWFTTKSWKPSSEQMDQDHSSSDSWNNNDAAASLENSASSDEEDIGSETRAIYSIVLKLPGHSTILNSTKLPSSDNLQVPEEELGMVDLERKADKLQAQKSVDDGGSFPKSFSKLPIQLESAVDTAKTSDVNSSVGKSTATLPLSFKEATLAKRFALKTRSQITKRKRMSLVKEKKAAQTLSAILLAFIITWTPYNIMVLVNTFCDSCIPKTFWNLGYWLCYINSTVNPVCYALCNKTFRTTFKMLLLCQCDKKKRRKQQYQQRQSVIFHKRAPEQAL

SMILES | Emax [%] | EC50 [µM]
CC(C)(O)CCOc1ccccc1C1CCN([C@@H]2CCC3(C2)CN(C(=O)C2COC2)C3)CC1 [Example 7CC, (R)-(6-(4-(2-(3-hydroxy-3-methylbutoxy)phenyl)piperidin-1-yl)-2-azaspiro[3.4]octan-2-yl)(oxetan-3-yl)methanone] | 0 | > 25
CC(C)COc1ccccc1C1CCN([C@@H]2CCC3(C2)CN(C(=O)C2COC2)C3)CC1 [Example 7F, (R)-(6-(4-(2-isobutoxyphenyl)piperidin-1-yl)-2-azaspiro[3.4]octan-2-yl)(oxetan-3-yl)methanone] | 0 | > 25
O=C(C1COC1)N1CC2(CC[C@@H](N3CCC(c4ccccc4OC4CCC4)CC3)C2)C1 [Example 7H, (R)-(6-(4-(2-cyclobutoxyphenyl)piperidin-1-yl)-2-azaspiro[3.4]octan-2-yl)(oxetan-3-yl)methanone] | 0 | > 25
O=C(C1COC1)N1CC2(CC[C@@H](N3CCC(c4ccccc4OCC4CC4)CC3)C2)C1 [Example 7I, (R)-(6-(4-(2-(cyclopropylmethoxy)phenyl)piperidin-1-yl)-2-azaspiro[3.4]octan-2-yl)(oxetan-3-yl)methanone] | 0 | > 25
O=C(C1COC1)N1CC2(CC[C@@H](N3CCC(c4ccccc4OCC4(C(F)(F)F)CC4)CC3)C2)C1 [Example 7II, (R)-oxetan-3-yl(6-(4-(2-((1-(trifluoromethyl)cyclopropyl)methoxy)phenyl)piperidin-1-yl)-2-azaspiro[3.4]octan-2-yl)methanone] | 0 | > 25
CCOc1ccccc1C1CCN([C@@H]2CCC3(C2)CN(C(=O)C2COC2)C3)CC1 [Example 7J, (R)-(6-(4-(2-ethoxyphenyl)piperidin-1-yl)-2-azaspiro[3.4]octan-2-yl)(oxetan-3-yl)methanone] | 0 | 
O=C(C1COC1)N1CC2(CC[C@@H](N3CCC(c4ccccc4OCC(F)F)CC3)C2)C1 [Example 7JJ, (R)-(6-(4-(2-(2,2-difluoroethoxy)phenyl)piperidin-1-yl)-2-azaspiro[3.4]octan-2-yl)(oxetan-3-yl)methanone] | 0 | > 25
CC(C)Oc1ccccc1C1CCN([C@@H]2CCC3(C2)CN(C(=O)C2COC2)C3)CC1 [Example 7K, (R)-(6-(4-(2-isopropoxyphenyl)piperidin-1-yl)-2-azaspiro[3.4]octan-2-yl)(oxetan-3-yl)methanone] | 0 | > 25
O=C(C1COC1)N1CC2(CC[C@@H](N3CCC(c4ccccc4OCCC4COC4)CC3)C2)C1 [Example 7KK, (R)-oxetan-3-yl(6-(4-(2-(2-(oxetan-3-yl)ethoxy)phenyl)piperidin-1-yl)-2-azaspiro[3.4]octan-2-yl)methanone] | 0 | > 25
CC(C)(O)COc1ccccc1C1CCN([C@@H]2CCC3(C2)CN(C(=O)C2COC2)C3)CC1 [Example 7L, (R)-(6-(4-(2-(2-hydroxy-2-methylpropoxy)phenyl)piperidin-1-yl)-2-azaspiro[3.4]octan-2-yl)(oxetan-3-yl)methanone] | 0 | > 25
O=C(C1COC1)N1CC2(CC[C@@H](N3CCC(c4ccccc4OC(F)(F)F)CC3)C2)C1 [Example 12A, (R)-oxetan-3-yl(6-(4-(2-(trifluoromethoxy)phenyl)piperidin-1-yl)-2-azaspiro[3.4]octan-2-yl)methanone] | 0 | > 25

Now from value to compound:

Emax [%] | EC50 [µM] | SMILES
0 | > 25 | CC(C)Oc1cc(F)ccc1C1CCN([C@@H]2CCC3(C2)CN(C(=O)C2COC2)C3)CC1 [Example 6D, (R)-(6-(4-(4-fluoro-2-isopropoxyphenyl)piperidin-1-yl)-2-azaspiro[3.4]octan-2-yl)(oxetan-3-yl)methanone]
0 | > 25 | O=C(N1CC2(CC[C@@H](N3CCC(c4ccccc4C4CCOCC4)CC3)C2)C1)C1(F)CC1 [Example 6E, (R)-(1-fluorocyclopropyl)(6-(4-(2-(tetrahydro-2H-pyran-4-yl)phenyl)piperidin-1-yl)-2-azaspiro[3.4]octan-2-yl)methanone]
9 | 9.78 | O=C(C1COC1)N1CC2(CC[C@@H](N3CCC(c4ccccc4OC4CC4)CC3)C2)C1 [Example 7A, (R)-(6-(4-(2-cyclopropoxyphenyl)piperidin-1-yl)-2-azaspiro[3.4]octan-2-yl)(oxetan-3-yl)methanone]
0 | > 25 | CC(C)(F)COc1ccccc1C1CCN([C@@H]2CCC3(C2)CN(C(=O)C2COC2)C3)CC1 [Example 7B, (R)-(6-(4-(2-(2-fluoro-2-methylpropoxy)phenyl)piperidin-1-yl)-2-azaspiro[3.4]octan-2-yl)(oxetan-3-yl)methanone]
0 | > 25 | O=C(C1COC1)N1CC2(CC[C@@H](N3CCC(c4ccccc4Oc4nccs4)CC3)C2)C1 [Example 7C, (R)-oxetan-3-yl(6-(4-(2-(thiazol-2-yloxy)phenyl)piperidin-1-yl)-2-azaspiro[3.4]octan-2-yl)methanone]
0 | > 25 | N#CCCOc1ccccc1C1CCN([C@@H]2CCC3(C2)CN(C(=O)C2COC2)C3)CC1 [Example 7D, (R)-3-(2-(1-(2-(oxetane-3-carbonyl)-2-azaspiro[3.4]octan-6-yl)piperidin-4-yl)phenoxy)propanenitrile]
0 | > 25 | O=C(C1COC1)N1CC2(CC[C@@H](N3CCC(c4ccccc4OCCOC(F)(F)F)CC3)C2)C1 [Example 7DD, (R)-oxetan-3-yl(6-(4-(2-(2-(trifluoromethoxy)ethoxy)phenyl)piperidin-1-yl)-2-azaspiro[3.4]octan-2-yl)methanone]
0 | > 25 | O=C(C1COC1)N1CC2(CC[C@@H](N3CCC(c4ccccc4OC[C@@H]4CCOC4)CC3)C2)C1 [Example 7E, oxetan-3-yl((R)-6-(4-(2-(((R)-tetrahydrofuran-3-yl)methoxy)phenyl)piperidin-1-yl)-2-azaspiro[3.4]octan-2-yl)methanone]
0 | > 25 | O=C(C1COC1)N1CC2(CC[C@@H](N3CCC(c4ccccc4OCCOC4COC4)CC3)C2)C1 [Example 7EE, (R)-oxetan-3-yl(6-(4-(2-(2-(oxetan-3-yloxy)ethoxy)phenyl)piperidin-1-yl)-2-azaspiro[3.4]octan-2-yl)methanone]
0 | > 25 | O=C(C1COC1)N1CC2(CC[C@@H](N3CCC(c4ccccc4OC4CCCC4)CC3)C2)C1 [Example 7G, (R)-(6-(4-(2-(cyclopentyloxy)phenyl)piperidin-1-yl)-2-azaspiro[3.4]octan-2-yl)(oxetan-3-yl)methanone]
0 | > 25 | O=C(C1COC1)N1CC2(CC[C@@H](N3CCC(c4ccccc4OCCC(F)(F)F)CC3)C2)C1 [Example 7GG, (R)-oxetan-3-yl(6-(4-(2-(3,3,3-trifluoropropoxy)phenyl)piperidin-1-yl)-2-azaspiro[3.4]octan-2-yl)methanone]
0 | > 25 | COC(C)(C)COc1ccccc1C1CCN([C@@H]2CCC3(C2)CN(C(=O)C2COC2)C3)CC1 [Example 7HH, (R)-(6-(4-(2-(2-methoxy-2-methylpropoxy)phenyl)piperidin-1-yl)-2-azaspiro[3.4]octan-2-yl)(oxetan-3-yl)methanone]
